ChEMBL document CHEMBL4304805, “Antibacterial activity of 2-amino-4-hydroxypyrimidine-5-carboxylates and binding to Burkholderia pseudomallei 2-C-methyl-d-erythritol-2,4-cyclodiphosphate synthase” (Bioorg Med Chem Lett, 2019)

Columns and labels:
Type in all cases: functional
Settings in all cases: read-out: DIZ
Klebsiella pneumoniae = test: Antibacterial activity against Klebsiella pneumoniae at 0.5 mM by Kirby Bauer disk diffusion method
Pseudomonas aeruginosa = test: Antibacterial activity against Pseudomonas aeruginosa at 0.5 mM by Kirby Bauer disk diffusion method
Micrococcus luteus = test: Antibacterial activity against Micrococcus luteus at 0.5 mM by Kirby Bauer disk diffusion method
Escherichia coli = test: Antibacterial activity against Escherichia coli at 0.5 mM by Kirby Bauer disk diffusion method
Corynebacterium xerosis = test: Antibacterial activity against Corynebacterium xerosis at 0.5 mM by Kirby Bauer disk diffusion method
[1] = test system: Burkholderia thailandensis; test: Antibacterial activity against Burkholderia thailandensis at 0.5 mM by Kirby Bauer disk diffusion method
[2] = test system: Corynebacterium pseudodiphtheriticum; test: Antibacterial activity against Corynebacterium pseudodiphtheriticum at 0.5 mM by Kirby Bauer disk diffusion method
[3] = test system: Mycolicibacterium smegmatis; test: Antibacterial activity against Mycobacterium smegmatis at 0.5 mM by Kirby Bauer disk diffusion method
Bacillus cereus = test: Antibacterial activity against Bacillus cereus at 0.5 mM by Kirby Bauer disk diffusion method

SMILES	zone of inhibition at 500 µM (Klebsiella pneumoniae) [mm]	zone of inhibition at 500 µM (Pseudomonas aeruginosa) [mm]	zone of inhibition at 500 µM (Micrococcus luteus) [mm]	zone of inhibition at 500 µM (Escherichia coli) [mm]	zone of inhibition at 500 µM (Corynebacterium xerosis) [mm]	zone of inhibition at 500 µM [1] [mm]	zone of inhibition at 500 µM [2] [mm]	zone of inhibition at 500 µM [3] [mm]	zone of inhibition at 500 µM (Bacillus cereus) [mm]
CCOC(=O)c1cnc(Nc2ccc(-c3ccncc3)cc2)nc1O	0	0	0	0	0	0	0	16	0
O=C(O)c1cnc(NCCc2ccncc2)nc1O		0				10			
CCOC(=O)c1cnc(NCCc2ccc(Cl)cc2)nc1O		0				0			7
CCOC(=O)c1cnc(NCCc2ccccc2Cl)nc1O	0	0	0	0	0	12	0	15	9
O=C(O)c1cnc(Nc2ccc3cn[nH]c3c2)nc1O	9	0	0	0	0	0	0	16	9
CCOC(=O)c1cnc(NCCc2ccncc2)nc1O		0				4			8
O=C(O)c1cnc(Nc2ccc(Br)cc2)nc1O	12	0	0	15	16	13	16	17	12
CCOC(=O)c1cnc(Nc2ccc(N3CCCCC3)cc2)nc1O	13	13	0	19	0	14	0	16	15
CCOC(=O)c1cnc(Nc2ccc(N3CCOCC3)cc2)nc1O	8	11	0	0	0	9	0	14	6
CCOC(=O)c1cnc(NCc2ccc(Cl)nc2)nc1O		0				9			10
O=C(O)c1cnc(Nc2ccc(-c3ccccc3)cc2)nc1O	15	0	0	0	0	0	0	15	12
CCOC(=O)c1cnc(Nc2ccc3cn[nH]c3c2)nc1O	12	12	0	7	7	11	0	17	10
O=C(O)c1cnc(NCc2cc(Cl)ccc2Cl)nc1O	8	9	0	11	0	10	10	15	10
CCOC(=O)c1cnc(NCc2ccc(Cl)c(Cl)c2)nc1O	0	0	0	0	0	0	0	0	12
O=C(O)c1cnc(NCC2CCCO2)nc1O (centres undefined)	0	0	0	0	0	7	0	0	0
CCOC(=O)c1cnc(NCCc2ccccn2)nc1O		0				0			8

SMILES	zone of inhibition at 500 µM (Klebsiella pneumoniae) [mm]	zone of inhibition at 500 µM (Pseudomonas aeruginosa) [mm]	zone of inhibition at 500 µM (Micrococcus luteus) [mm]	zone of inhibition at 500 µM (Escherichia coli) [mm]	zone of inhibition at 500 µM (Corynebacterium xerosis) [mm]	zone of inhibition at 500 µM [1] [mm]	zone of inhibition at 500 µM [2] [mm]	zone of inhibition at 500 µM [3] [mm]	zone of inhibition at 500 µM (Bacillus cereus) [mm]
O=C(O)c1cnc(NCCc2ccc(Cl)cc2)nc1O	0	19	0	0	0	12	0	14	
CCOC(=O)c1cnc(Nc2ccc(CC(=O)O)cc2)nc1O	9	0	0	10	0	8	0	0	11
CCOC(=O)c1cnc(NCCc2ccc(Cl)cc2Cl)nc1O	0	0	0	0	0	11	0	0	0
CCOC(=O)c1cnc(NCCc2ccc(F)cc2)nc1O	0	11	0	0	0	9	0	14	11
CCOC(=O)c1cnc(NCCc2cccc(F)c2)nc1O	0	0	0	0	0	0	0	0	0
O=C(O)c1cnc(NCc2ccc(F)cc2)nc1O	0	0	0	0	0	12	0	0	12
CCOC(=O)c1cnc(NCc2ccc(F)cc2)nc1O	0	0	0	0	0	8	0	0	19
O=C(O)c1cnc(Nc2ccc3[nH]ncc3c2)nc1O	0	0	0	0	0	10	0	14	7
CCOC(=O)c1cnc(Nc2ccc3[nH]ncc3c2)nc1O	0	10	0	0	0	8	0	10	10
CCOC(=O)c1cnc(NCc2cc(Cl)ccc2Cl)nc1O	0	0	14	0	0	9	0	0	13
O=C(O)c1cnc(NCc2ccc(Cl)cc2)nc1O	9	15	0	14	0	11	0	15	14
CCOC(=O)c1cnc(NCC2CCCO2)nc1O (centres undefined)	0	0	0	0	0	11	0	15	0
O=C(O)c1cnc(Nc2ccc(N3CCCCC3)cc2)nc1O	10	0	0	11	0	11	0	0	12
CCOC(=O)c1cnc(Nc2ccc(I)cc2)nc1O		0				0			13
O=C(O)c1cnc(NCc2ccc(Cl)nc2)nc1O		10				12			
